Data set [1] concerns H37Rv strain of Mycobacterium tuberculosis. Description: microbe, parasite or virus in culture. It is filed as cell-based.
A further data set concerns cells. Description: LD50 for selectivity index (Table 10). To be noted: for SI (Selectivity Index): LD50 : MIC. The format is cell-based, Mycobacterium tuberculosis. From the text: Table 10 lists MIC and LD50 data for selected compounds. […] Table 11 lists MIC data for purified substituted ethylene diamines in comparison to ethambutol (EMB).
Data set [2] has as its system monkey kidney cells (Vero). Kind of data set: In vitro toxicity, Vero cells. The format is cell-based. Conditions: Primates. How it is done: Twenty six compounds (including 37, 59 and 109) were tested in an in vitro model of toxicity using monkey kidney cells (Vero) and human cervical cancer cells (HeLa) using methods well known to those skilled in the art. The data from this toxicity testing and the MIC data were used to calculate a selectivity index (SI), the ratio of IC50:MIC (Table 15). Selectivity Indexes were ranging from 1.76 to 16.67.

A further data set deals with M. tuberculosis H37Rv. Kind of data set: In vivo efficacy, mice infected i.v. with M. tuberculosis, CFU in spleen and lungs. More on the design: species or system C57BL/6 mice. Conditions: 25 mg/kg; 5×10^6 CFU, 4 weeks.
Where [3] appears, read: Mycobacterium tuberculosis, H37RV, read-out: MIC.
Setting [4] is: concentration at which 50% of the cells are killed.
The mark [5] stands for this setting: Mycobacterium tuberculosis, H37RV, Table 10, from uM and MW, read-out: MIC.
Where [6] appears, read: Mycobacterium tuberculosis, H37RV, Table 10, read-out: MIC.
[7] abbreviates: Mycobacterium tuberculosis, H37RV, Table 15, read-out: MIC.

“And” between values parts separate entries of the source, which are not always exact repeats. Equal entries are not always repeated. Where two headings read alike, the source gives them in different places.

On to `CCC(CO)NCCN[C@@H]1C[C@@H]2CC([C@H]1C)C2(C)C` (mixture of isomers) [Compound 68], for which the MIC in data set [1] (setting [3]) came out at 500 µM.
As to `COc1ccc(CCNCCNCC23CC4CC(CC(C4)C2)C3)cc1OC` [Compound 4], the “MIC” value worked out at 62.5 µM in data set [1] and 125 µM in data set [1] (setting [3]).
On to `CC(CNCCC(c1ccccc1)c1ccccc1)NCC12CC3CC(CC(C3)C1)C2` (centres unmarked) [Compound 6], for which the “SI (Selectivity Index)” value in the data set on cells is 2.56. For the same molecule, the “LD50” value in the data set on cells (setting [4]) came out at 20 µM; with cells (from uM and MW), 10.72 µg/mL. In addition, the figures for the MIC in data set [1] (setting [5]) and in data set [1] (setting [6]) were 4.19 µg/mL and 7.81 µM, respectively.
Consider `CC1CC(C)CN(CCNCCC(c2ccccc2)c2ccccc2)C1` (centres unmarked) [Compound 15, 1-{2-[N-(3,3-Diphenylpropyl)]-aminoethyl}-3,5-dimethyl-piperidine], for which the “MIC” value in data set [1] was 250 µM and 500 µM; in data set [1] (setting [3]), greater than 500 µM.
As to `CC1CCCC(NCCNCC(c2ccccc2)c2ccccc2)C1C` (centres unmarked) [Compound 29, N-(2,2-Diphenylethyl)-N′-(2,3-dimethylcylcohexyl)ethane-1,2-diamine], the “MIC” value in data set [1] was found to be 31.25 µM; in data set [1] (setting [3]), 62.5 µM.
The corresponding values for `CC(C)(C)CC(C)(C)NCCNCC(c1ccccc1)c1ccccc1` [Compound 33, N-(2,2-Diphenylethyl)-N′-(1,1,3,3-tetramethylbutyl)-ethane-1,2-diamine] are 31.25 µM and 62.5 µM.
On to `c1ccc(C(CNCCNCC23CC4CC(CC(C4)C2)C3)c2ccccc2)cc1` [Compound 34, N-(2,2-Diphenylethyl)-N′-(1-methyladamantyl)ethane-1,2-diamine], for which the “SI (Selectivity Index)” value in the data set on cells was found to be 4.096. In addition, the “LD50” value in the data set with cells (setting [4]) stood at 32 µM; in the data set with cells (from uM and MW), 16.256 µg/mL. In addition, the MIC in data set [1] (setting [5]) worked out at 3.97 µg/mL; in data set [1] (setting [6]), 7.81 µM.
Consider `CC(CNCC(c1ccccc1)c1ccccc1)NCC1CCC2C[C@@H]1C2(C)C` (stereo partly drawn) [Compound 38, N-(−)-cis-(Myrtanyl)-N′-(2,2-diphenylethyl)propyl-1,2-diamine], for which the MIC in data set [1] (setting [7]) amounted to 6.25 µM. Moreover, the IC50 in data set [2] amounted to 33 µM.
The corresponding values for `C[C@@H]1C2C[C@@H](C[C@H]1NCCNCC(c1ccccc1)c1ccccc1)C2(C)C` [Compound 40, N-(2,2-Diphenylethyl)-N′-(1R,2R,3R,5S)-(−)-isopinocampheylethane-1,2-diamine] are 15.6 µM and 25 µM.
Taken in the same sequence, the figures for `CC1CCCC(NCCNC[C@@H]2CCC3C[C@@H]2C3(C)C)C1C` (stereo partly drawn) [Compound 41, N-(−)-cis-(Myrtanyl)-N′-(2,3-dimethylcyclohexyl)ethane-1,2-diamine] were 3.13 µM and 19 µM.
Take `C[C@@H]1C2C[C@@H](C[C@H]1NCCNCC1CCC3C[C@@H]1C3(C)C)C2(C)C` (stereo partly drawn) [Compound 47, N-(−)-cis-Myrtanyl-N′-(1R, 2R, 3R, 5S)-(−)-isopinocampheylethane-1,2-diamine]: the “SI (Selectivity Index)” value with cells turned out to be 1.6. Moreover, the “LD50” value with cells (setting [4]) was determined as 25 µM; in the data set on cells (from uM and MW), 11.3 µg/mL. For the same molecule, the MIC in data set [1] (setting [5]) was determined as 7.06 µg/mL; in data set [1] (setting [6]) it was 15.6 µM.
As to `C[C@@H]1[C@@H](NCCNC2CCCCCCC2)C[C@H]2C[C@@H]1C2(C)C` [Compound 53, N-Cyclooctyl-N′-(1S, 2S, 3S, 5R)-(+)-isopinocampheyl-ethane-1,2-diamine], the MIC in data set [1] (setting [3]) amounted to 31.2 µM.
On to `C1CCCC(NCCNCC23CC4CC(CC(C4)C2)C3)CCC1` [Compound 55, N-(Cyclooctyl)-N′-(1-methyladamantyl)ethane-1,2-diamine], for which the “MIC” value in data set [1] is 15.625 µM and 15.6 µM; in data set [1] (setting [7]), 15.6 µM; in data set [1] (setting [3]) it was 15.6 µM. For the same molecule, the IC50 in data set [2] is 34 µM.
As for `CC[C@@H](CO)NCCNC1CCCCCCC1` [Compound 56, N-(Cyclooctyl)-N′-(2S)-[2-(1-hydroxybutyl)]ethane-1,2-diamine], the entries for the “MIC” value in data set [1] and in data set [1] (setting [3]) were greater than 500 µM and 500 µM, respectively.
Consider `CC1(C)C2CCC(CNCCNC3CCCCCCC3)[C@@H]1C2` (stereo partly drawn) [Compound 57, N-(−)-cis-Myrtanyl-N′-(cyclooctyl)ethane-1,2-diamine], for which the “SI (Selectivity Index)” value in the data set on cells was 1.152. In addition, the “LD50” value is 18 µM with cells (setting [4]); 7.668 µg/mL with cells (from uM and MW). Further, the MIC was 6.66 µg/mL in data set [1] (setting [5]), 15.6 µM in data set [1] (setting [6]) and 11.7 µM in data set [1] (setting [7]). This molecule yielded an IC50 in data set [2] of 22 µM.
`C1CCCC(NCCNC2C3CC4CC(C3)CC2C4)CCC1` (centres unmarked) [Compound 58, N-(Cyclooctyl)-N′-(2-adamantyl)ethane-1,2-diamine]: the MIC in data set [1] (setting [7]) is 12.5 µM. Also, in the data set with M. tuberculosis H37Rv, the “activity in vivo, spleen and lung” value was “active in vivo in both spleen and lung”. Besides, the IC50 in data set [2] is 82 µM.
For `CC(NCCNC1CCCCCCC1)c1cccc2ccccc12` (centres unmarked) [Compound 61], the “MIC” value amounted to 31.25 µM in data set [1] and 62.5 µM in data set [1] (setting [3]).
Taken in the same sequence, the figures for `c1ccc(C2CC2NCCNC2CCCCCCC2)cc1` (stereo not drawn) [Compound 63, N-(Cyclooctyl)-N′-trans-(2-phenylcyclopropyl)ethane-1,2-diamine] were 31.25 µM and 62.5 µM.
For `c1ccc(C2CC2NCCNC2C3CC4CC(C3)CC2C4)cc1` (stereo not drawn) [Compound 64, N-(2-Adamantyl)-N′- trans-(2-phenylcyclopropyl)ethane-1,2-diamine], the MIC in data set [1] (setting [3]) worked out at 31.2 µM.
On to `c1ccc(C2CC2NCCNC23CC4CC(CC(C4)C2)C3)cc1` (stereo not drawn) [Compound 65, N-(1-Adamantyl)-N′- trans-(2-phenylcyclopropyl)ethane-1,2-diamine], for which the “SI (Selectivity Index)” value with cells is recorded as 3.84. In addition, the “LD50” value was 60 µM in the data set with cells (setting [4]); 25.8 µg/mL in the data set with cells (from uM and MW). Moreover, the “MIC” value in data set [1] came out at 31.25 µM; in data set [1] (setting [5]), 6.72 µg/mL; in data set [1] (setting [6]), 15.6 µM; in data set [1] (setting [3]) it was 15.6 µM.
Turning to `C[C@@H]1C2C[C@@H](C[C@H]1NCCNCCC(c1ccccc1)c1ccccc1)C2(C)C` [Compound 66, N-(3,3-Diphenylpropyl)-N′-(1R, 2R, 3R, 5S)-(−)-isopinocampheylethane-1,2-diamine], in data set [1] (setting [7]), the MIC was 15.6 µM. In data set [2], this molecule yielded an IC50 of 28 µM.
Consider `C[C@@H]1C2C[C@@H](C[C@H]1NCCNC(c1ccccc1)c1ccccc1)C2(C)C` [Compound 71, N-(1,1-Diphenylmethyl)-N′-(1R, 2R, 3R, 5S)-(−)-isopinocampheylethane-1,2-diamine], for which the “MIC” value in data set [1] turned out to be 31.25 µM; in data set [1] (setting [3]), 62.5 µM.
The corresponding values for `C=CCN(CCNCCc1ccccc1OC)C1CCCC1` [Compound 76, N-Allyl-N-cyclopentyl-N′-[2-(2-methoxyphenyl)ethyl]ethane-1,2-diamine] are 31.25 µM and 62.5 µM.
On to `c1ccc2c(c1)CC(NCCNC1C3CC4CC(C3)CC1C4)C2` (centres unmarked) [Compound 78, N-2-Adamantyl-N′-2,3-dihydro-1H-inden-2-yl-ethane-1,2-diamine], for which the MIC in data set [1] (setting [7]) is 15.6 µM. Also, the midpoint of inhibition in data set [2], the IC50, lay at 130 µM.
On to `C1CCCC(NCCNC2CCCCCCC2)CCC1` [Compound 103, N,N′-Bis(cyclooctyl)ethane-1,2-diamine], for which the “MIC” value in data set [1] is 62.5 µM; in data set [1] (setting [3]), 31.2 µM.
Taken in the same sequence, the figures for `CCOCCCNCCNCC(c1ccccc1)c1ccccc1` [Compound 107] were 250 µM and 500 µM.
For the molecule `C=CCN(CCNCCc1ccccc1Cl)C1CCCC1` [Compound 118, N-2-(2-Chlorophenyl)ethyl-N′-allyl-N′-(cyclopentyl)ethane-1,2-diamine], the results for the “MIC” value in data set [1] and in data set [1] (setting [3]) were 62.5 µM and 31.2 µM, respectively.
The corresponding values for `Fc1cccc(CCNCCNCCc2ccccc2Cl)c1` [Compound 119, N-2-(2-Chlorophenyl)ethyl-N′-[2-(3-fluorophenyl)-ethyl]ethane-1,2-diamine] are 62.5 µM and 125 µM.
Taken in the same sequence, the figures for `CC(CNC[C@@H]1CCC2C[C@@H]1C2(C)C)NCC1CCC2C[C@@H]1C2(C)C` (stereo partly drawn) [Compound 125, N,N′-bis-(−)-cis-Myrtanylpropane-1,2-diamine] were 15.625 µM and 15.6 µM.
Taken in the same sequence, the figures for `CC(NCCNCC(c1ccccc1)c1ccccc1)C(O)c1ccc(O)c(O)c1` (stereo not drawn) [Compound 134, N-[2-(N′-2,2-Diphenylethyl)-aminoethyl]-(−)-3,4-dihydroxynorephedrine] were 500 µM and greater than 500 µM.
Take `COc1ccccc1CCNCCN[C@@H]1C[C@@H]2CC([C@H]1C)C2(C)C` [Compound 151, N-[2-(2-Methoxy)phenylethyl]-N′-(1R, 2R, 3R, 5S)-(−)-isopinocampheyl-ethane-1,2-diamine]: the “SI (Selectivity Index)” value in the data set on cells is listed as 5.248. The “LD50” value came to 41 µM in the data set with cells (setting [4]); 18.45 µg/mL in the data set on cells (from uM and MW). Also, the “MIC” value in data set [1] turned out to be 7.813 µM; in data set [1] (setting [5]), 3.52 µg/mL; in data set [1] (setting [6]), 7.81 µM; in data set [1] (setting [3]) it was 15.6 µM.
Take `COc1ccc(CCNCC(NCCc2ccc(F)cc2)c2ccccc2)cc1` (centres unmarked) [Compound 164, N^1-[2-(4-fluorophenyl)ethyl]-N^2-[2-(4-Methoxy)phenylethyl)-1-phenylethane-1,2-diamine]: the “MIC” value worked out at 125 µM in data set [1] and 62.5 µM in data set [1] (setting [3]).
For `C(CNC1C2CC3CC(C2)CC1C3)NC1C2CC3CC(C2)CC1C3` (centres unmarked) [SQBisAd, Bis(2-Adamantyl)ethylenediamine], the “MIC (Minimal Inhibitory Concentration) compared with compound 109” value in data set [1] is given as “equal or better than compound 109”.

What is called IC50 is the concentration that gives 50% inhibition.

These data come from patent publication US8202910B2 (Sequella, Inc., priority 2006, dated 2012).
